From patent publication EP2599480A1 (priority 2011, dated 2013)
Read-outs that look alike come from different tables or passages of the source.

Legend:
in vitro = conditions: dog; for CC50 at 72 h: mdck
[1] = target: NA of influenza virus A/PR/8/34 (Influenza A virus, UniProt P03468); assay: biochemical; design: species or system H1N1 influenza virus A/Puerto Rico/8/34
[2] = system: NA of influenza virus A/Jena/5555/09; format: biochemical, clinical H1N1 isolate A/Jena/5555/09
[3] = system: NA of influenza virus A/Jena/5528/09; format: biochemical, clinical H1N1 isolate A/Jena/5528/09

Chain of NA of influenza virus A/PR/8/34 (P03468 whole entry, looked up): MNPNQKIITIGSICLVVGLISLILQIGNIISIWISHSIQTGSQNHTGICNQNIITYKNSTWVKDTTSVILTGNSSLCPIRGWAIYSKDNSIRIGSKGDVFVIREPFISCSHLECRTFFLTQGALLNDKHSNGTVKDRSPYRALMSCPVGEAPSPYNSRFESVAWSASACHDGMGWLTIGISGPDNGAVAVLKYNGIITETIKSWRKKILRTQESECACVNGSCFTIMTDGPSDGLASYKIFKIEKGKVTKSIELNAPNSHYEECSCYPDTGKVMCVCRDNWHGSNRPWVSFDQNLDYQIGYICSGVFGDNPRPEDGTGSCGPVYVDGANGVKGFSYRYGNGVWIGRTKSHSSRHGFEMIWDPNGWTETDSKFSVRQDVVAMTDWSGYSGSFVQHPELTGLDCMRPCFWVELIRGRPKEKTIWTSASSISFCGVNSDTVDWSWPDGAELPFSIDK

Work on `N=C(N)NS(=O)(=O)c1ccc(N=Nc2c(O)c(C(=O)O)cc3ccccc23)cc1` [NCI compound 134139] yielded a CC50 at 72 h (in vitro) greater than 100 µM.

With `Cc1nnc(NS(=O)(=O)c2ccc(N=Nc3c(O)c(C(=O)O)cc4ccccc34)cc2)s1` [NCI compound 134131] the CC50 at 72 h (in vitro) was greater than 100 µM.

For `Cc1cc(S(=O)(=O)O)ccc1N=Nc1ccc(N=Nc2c(O)ccc3ccccc23)c(C)c1` [NCI compound 66221], the IC50 ([1]; IC50 for A/PR/8/34) was 0.29 µM.

`O=C(O)c1cc2ccccc2c(N=Nc2ccc(S(=O)(=O)Nc3nccs3)cc2)c1O` [NCI compound 134135] gave a CC50 at 72 h (in vitro) greater than 100 µM, an IC50 [2] of 0.31 µM and an IC50 [3] of 0.24 µM.

Compound `Nc1c(N=Nc2ccc(S(=O)(=O)Nc3ccccn3)cc2)cc(S(=O)(=O)O)c2ccccc12` [NCI compound 30456] has an IC50 [1] of less than 0.12 µM.

For `O=S(=O)(O)c1ccc2cc(N=Nc3cc(S(=O)(=O)O)c4cccnc4c3O)ccc2c1` [NCI compound 87877], the CC50 at 72 h (in vitro) was greater than 100 µM, the IC50 [2] was 1.55 µM and the IC50 [3] was 1.74 µM.

For `Cc1ccc(Nc2nnc(CSc3ccc(Cl)cc3)s2)c(S(=O)(=O)O)c1` [NCI compound 369693], the CC50 at 72 h (in vitro) was greater than 100 µM.

`O=C(Nc1cc(S(=O)(=O)O)cc2cc(S(=O)(=O)O)ccc12)c1ccccc1` [NCI compound 37172] showed a CC50 (in vitro) greater than 100 µM.

For `O=C(Nc1cc(S(=O)(=O)O)cc2cc(S(=O)(=O)O)cc(O)c12)c1ccccc1` [NCI compound 16169], the CC50 (in vitro) was greater than 100 µM.

For `CN(C)c1ccc(C=Nc2cc(S(=O)(=O)O)cc3cc(S(=O)(=O)O)cc(O)c23)cc1` [NCI compound 37200], the CC50 at 72 h (in vitro) was greater than 100 µM, the IC50 [2] was 0.94 µM and the IC50 [3] was 1.18 µM.

`Nc1c(N=Nc2ccc(S(=O)(=O)Nc3nccs3)cc2)cc(S(=O)(=O)O)c2ccccc12` [NCI compound 31348] showed a CC50 at 72 h (in vitro) greater than 100 µM.

With `O=C(O)c1cc2ccccc2c(N=Nc2ccc(S(=O)(=O)O)cc2)c1O` [NCI compound 134138] the CC50 at 72 h (in vitro) was greater than 100 µM, the IC50 [2] was 2.9 µM and the IC50 [3] was 3.06 µM.

For `Cc1cccc(NS(=O)(=O)c2ccc(N=Nc3c(O)c(C(=O)O)cc4ccccc34)cc2)n1` [NCI compound 134133], the IC50 [1] was less than 0.12 µM.

In the case of `Cc1ccc(S(=O)(=O)Oc2cc(S(=O)(=O)O)cc3cc(S(=O)(=O)O)cc(N)c23)cc1` [NCI compound 16168], the IC50 ([1]; IC50 for A/PR/8/34) is reported as 5.91 µM and the CC50 (in vitro) is reported as greater than 100 µM.

In the case of `Nc1ccc(C(=O)Nc2ccc(S(=O)(=O)O)c3cccc(O)c23)cc1` [NCI compound 37609], the CC50 at 72 h (in vitro) is reported as greater than 100 µM.

For `Cc1ccc(N=Nc2c(O)c(C(=O)O)cc3ccccc23)cc1C` [NCI compound 134141], the CC50 at 72 h (in vitro) was greater than 100 µM.

Compound `O=C(O)c1cc2ccccc2c(N=Nc2ccc(S(=O)(=O)Nc3ncccn3)cc2)c1O` [NCI compound 134136] has a CC50 at 72 h (in vitro) greater than 100 µM.

For `O=S(=O)(O)c1cc2cccc(S(=O)(=O)O)c2c(O)c1N=Nc1ccccc1` [NCI compound 45549], the IC50 ([1]; IC50 for A/PR/8/34) was 4.85 µM and the CC50 at 72 h (in vitro) was greater than 100 µM.

Work on `Nc1ccc(C(=O)Nc2cc(S(=O)(=O)O)cc3cccc(O)c23)cc1` [NCI compound 37176] yielded a CC50 (in vitro) greater than 100 µM.

In the case of `O=S(=O)(O)c1ccc2c(N=Nc3ccc(N=Nc4ccccc4)cc3)c(O)ccc2c1` [NCI compound 65545], the CC50 at 72 h (in vitro) is reported as greater than 100 µM, the IC50 [2] is reported as 0.24 µM and the IC50 [3] is reported as 0.11 µM.

`Nc1ccc(C(=O)Nc2cc(S(=O)(=O)O)cc3cc(S(=O)(=O)O)ccc23)cc1` [NCI compound 37180] gave a CC50 (in vitro) greater than 100 µM.

Work on `Cc1cc(NS(=O)(=O)c2ccc(N=Nc3c(O)c(C(=O)O)cc4ccccc34)cc2)nc(C)n1` [NCI compound 134140] yielded a CC50 at 72 h (in vitro) greater than 100 µM.

In the case of `Nc1cc(S(=O)(=O)O)cc2cc(S(=O)(=O)O)c(N=Nc3cc(S(=O)(=O)O)cc4cc(S(=O)(=O)O)cc(O)c34)c(O)c12` [NCI compound 162530], the CC50 at 72 h (in vitro) is reported as greater than 100 µM.

`O=C(O)c1c(O)c(N=Nc2ccc(S(=O)(=O)Nc3ccccn3)cc2)cc2ccccc12` [NCI compound 134145] gave a CC50 at 72 h (in vitro) greater than 100 µM.

In the case of `O=C(O)c1cc(C(=O)CCCC(=O)c2cc(C(=O)O)c(O)c3ccccc23)c2ccccc2c1O` [NCI compound 292216], the CC50 at 72 h (in vitro) is reported as greater than 100 µM.

For `O=[N+]([O-])c1cccc(N=Nc2c(O)c(S(=O)(=O)O)cc3cc(S(=O)(=O)O)ccc23)c1` [NCI compound 45541], the CC50 at 72 h (in vitro) was greater than 100 µM.

`CC(=O)Nc1cc(S(=O)(=O)O)cc2cc(S(=O)(=O)O)cc(O)c12` [NCI compound 74489] gave a CC50 at 72 h (in vitro) greater than 100 µM.

`CCCCCC(=O)Nc1cc(S(=O)(=O)O)cc2cc(S(=O)(=O)O)cc(O)c12` [NCI compound 97290] gave a CC50 at 72 h (in vitro) greater than 100 µM.

Compound `O=[N+]([O-])c1ccc(N=Nc2c(O)c(S(=O)(=O)O)cc3cc(S(=O)(=O)O)ccc23)cc1` [NCI compound 45540] has a CC50 at 72 h (in vitro) greater than 100 µM.

`CC1NOC(NS(=O)(=O)c2ccc(N=Nc3c(O)c(C(=O)O)cc4ccccc34)cc2)C1C` (centres unmarked) [NCI compound 134132] gave an IC50 ([1]; read-out: IC50 for A/PR/8/34) of 0.64 µM.

With `O=[N+]([O-])c1ccc(N=Nc2c(O)ccc3cc(S(=O)(=O)O)ccc23)cc1` [NCI compound 45538] the CC50 at 72 h (in vitro) was greater than 100 µM.

With `O=C(O)c1cc2ccccc2c(N=Nc2ccc(S(=O)(=O)Nc3ccccn3)cc2)c1O` [NCI compound 134134] the IC50 ([1]; IC50 for A/PR/8/34) was 0.45 µM.

Work on `O=[N+]([O-])c1ccc(N=Nc2c(O)ccc3cc(S(=O)(=O)O)cc(S(=O)(=O)O)c23)cc1` [NCI compound 45539] yielded a CC50 at 72 h (in vitro) greater than 100 µM.

`CCOc1ccc(N=Nc2ccc(C=Nc3ccc4c(O)cc(S(=O)(=O)O)cc4c3)cc2)cc1` [NCI compound 37220] gave an IC50 ([1]; IC50 for A/PR/8/34) of 0.42 µM and a CC50 at 72 h (in vitro) greater than 100 µM.
